ChEMBL document CHEMBL3994586, “Treatment of estrogen-dependent diseases: Design, synthesis and profiling of a selective 17β-HSD1 inhibitor with sub-nanomolar IC50 for a proof-of-principle study” (Eur J Med Chem, 2017)
pIC50: −log10 of the molar value.

Tests used:
[1] = molecular target: T1, 17-beta-hydroxysteroid dehydrogenase type 2 (Homo sapiens, UniProt P37059); test: Inhibition of human placental microsomal 17beta-HSD2 using [2,4,6,7-3H]-E2 as substrate after 20 mins in presence of NAD+ by RP-HPLC method
T1 sequence (P37059 whole entry): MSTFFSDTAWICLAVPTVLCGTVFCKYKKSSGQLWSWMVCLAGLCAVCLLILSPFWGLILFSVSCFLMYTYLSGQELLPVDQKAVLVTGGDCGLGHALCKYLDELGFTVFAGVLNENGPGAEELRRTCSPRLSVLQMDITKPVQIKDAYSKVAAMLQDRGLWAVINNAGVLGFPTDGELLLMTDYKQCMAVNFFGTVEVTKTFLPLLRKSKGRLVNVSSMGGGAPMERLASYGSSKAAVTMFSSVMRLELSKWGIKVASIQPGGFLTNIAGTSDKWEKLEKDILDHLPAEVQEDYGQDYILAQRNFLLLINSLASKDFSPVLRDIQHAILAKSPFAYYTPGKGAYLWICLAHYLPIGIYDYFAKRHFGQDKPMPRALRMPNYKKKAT

[2] = molecular target: T2, 17-beta-hydroxysteroid dehydrogenase type 1 (Homo sapiens, UniProt P14061); test: Inhibition of human placental cytosolic 17beta-HSD1 assessed as reduction in activation of [2,4,6,7-3H]-E1 substrate to E2 after 10 mins in presence of NADH by RP-HPLC method
T2 sequence (P14061 whole entry): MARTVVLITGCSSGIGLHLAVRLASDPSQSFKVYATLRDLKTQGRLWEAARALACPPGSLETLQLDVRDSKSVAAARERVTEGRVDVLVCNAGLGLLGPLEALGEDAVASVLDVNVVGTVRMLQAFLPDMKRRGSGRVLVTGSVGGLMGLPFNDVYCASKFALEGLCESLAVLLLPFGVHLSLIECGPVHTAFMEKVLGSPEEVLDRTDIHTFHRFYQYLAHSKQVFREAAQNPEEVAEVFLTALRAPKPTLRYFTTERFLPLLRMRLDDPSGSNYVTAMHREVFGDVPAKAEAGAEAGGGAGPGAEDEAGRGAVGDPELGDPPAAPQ

[3] = molecular target: T3, Estrogen receptor alpha (ERalpha) (Homo sapiens, UniProt P03372); test: Displacement of [3H]E2 from human recombinant ERalpha assessed as receptor binding at 3 uM after 16 to 20 hrs by liquid scintillation counting method relative to control; details: probe [3H]E2, read-out: Activity
T3 sequence (P03372 whole entry): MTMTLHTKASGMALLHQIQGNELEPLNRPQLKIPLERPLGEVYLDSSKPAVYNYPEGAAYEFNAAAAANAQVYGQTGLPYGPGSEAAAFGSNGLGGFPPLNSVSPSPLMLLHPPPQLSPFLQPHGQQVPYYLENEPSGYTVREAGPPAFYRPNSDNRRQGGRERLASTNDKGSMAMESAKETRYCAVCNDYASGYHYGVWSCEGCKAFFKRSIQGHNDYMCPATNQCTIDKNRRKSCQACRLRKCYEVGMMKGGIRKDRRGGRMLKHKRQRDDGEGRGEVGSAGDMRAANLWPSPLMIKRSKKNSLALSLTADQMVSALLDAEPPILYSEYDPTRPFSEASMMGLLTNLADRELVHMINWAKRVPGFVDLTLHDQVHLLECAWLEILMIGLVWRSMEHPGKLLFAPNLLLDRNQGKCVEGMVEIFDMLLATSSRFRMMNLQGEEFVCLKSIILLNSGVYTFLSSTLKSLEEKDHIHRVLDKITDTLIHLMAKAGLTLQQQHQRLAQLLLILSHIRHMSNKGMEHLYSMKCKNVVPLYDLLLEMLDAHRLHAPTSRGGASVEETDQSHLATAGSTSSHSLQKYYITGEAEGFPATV

[4] = molecular target: Estrogen receptor beta (ERbeta) (Homo sapiens, UniProt Q92731); test: Displacement of [3H]E2 from human recombinant ERbeta assessed as receptor binding at 10 uM after 16 to 20 hrs by liquid scintillation counting method relative to control; details: probe [3H]E2, read-out: Activity
Estrogen receptor beta (ERbeta), sequence (Q92731 whole entry): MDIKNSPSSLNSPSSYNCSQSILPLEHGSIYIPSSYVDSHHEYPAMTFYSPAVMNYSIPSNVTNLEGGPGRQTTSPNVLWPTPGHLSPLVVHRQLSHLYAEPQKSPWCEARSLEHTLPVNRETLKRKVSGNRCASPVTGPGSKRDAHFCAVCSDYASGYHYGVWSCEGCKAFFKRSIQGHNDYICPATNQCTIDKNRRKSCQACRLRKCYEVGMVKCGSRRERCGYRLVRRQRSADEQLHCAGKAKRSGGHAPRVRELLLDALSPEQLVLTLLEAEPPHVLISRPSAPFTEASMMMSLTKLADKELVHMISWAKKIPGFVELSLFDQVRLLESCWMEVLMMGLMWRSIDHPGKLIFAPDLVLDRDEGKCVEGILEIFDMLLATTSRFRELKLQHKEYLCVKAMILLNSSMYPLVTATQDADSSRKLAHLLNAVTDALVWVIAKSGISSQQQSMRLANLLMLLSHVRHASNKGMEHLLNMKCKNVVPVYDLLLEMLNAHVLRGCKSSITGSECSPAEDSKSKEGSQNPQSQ

CYP2D6 = CYP2D6 (Homo sapiens, UniProt P10635); test: Inhibition of recombinant human CYP2D6 expressed in baculovirus infected insect cell microsomes at 1 uM relative to control; type: ADME
CYP2D6, sequence (P10635 whole entry): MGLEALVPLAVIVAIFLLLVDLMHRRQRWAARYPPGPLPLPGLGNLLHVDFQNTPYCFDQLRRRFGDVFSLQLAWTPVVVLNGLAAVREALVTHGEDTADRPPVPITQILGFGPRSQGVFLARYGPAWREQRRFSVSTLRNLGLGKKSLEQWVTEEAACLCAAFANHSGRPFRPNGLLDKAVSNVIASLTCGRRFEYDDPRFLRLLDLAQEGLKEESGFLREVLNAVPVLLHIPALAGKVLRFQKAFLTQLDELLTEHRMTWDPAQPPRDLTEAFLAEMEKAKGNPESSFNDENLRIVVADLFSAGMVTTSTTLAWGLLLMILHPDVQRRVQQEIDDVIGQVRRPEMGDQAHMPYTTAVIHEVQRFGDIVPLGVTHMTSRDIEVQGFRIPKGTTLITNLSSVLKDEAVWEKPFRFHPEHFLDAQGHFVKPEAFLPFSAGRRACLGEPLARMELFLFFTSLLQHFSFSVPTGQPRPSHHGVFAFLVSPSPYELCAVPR

HEK293 = test: Cytotoxicity against HEK293 cells assessed as reduction in cell viability up to 5.6 uM after 66 hrs by MTT assay; type: cell-based; details: human, hek293, 66 h
Plasma [5] = test: Plasma concentration in Sprague-Dawley rat at 150 umol/kg, sc qd for 4 consecutive days measured on day 2 post dose by HPLC-MS analysis; type: ADME, organism-based; details: in vivo
CYP2C19 = CYP2C19 (Homo sapiens, UniProt P33261); test: Inhibition of recombinant human CYP2C19 expressed in baculovirus infected insect cell microsomes at 1 uM relative to control; type: ADME
CYP2C19, sequence (P33261 whole entry): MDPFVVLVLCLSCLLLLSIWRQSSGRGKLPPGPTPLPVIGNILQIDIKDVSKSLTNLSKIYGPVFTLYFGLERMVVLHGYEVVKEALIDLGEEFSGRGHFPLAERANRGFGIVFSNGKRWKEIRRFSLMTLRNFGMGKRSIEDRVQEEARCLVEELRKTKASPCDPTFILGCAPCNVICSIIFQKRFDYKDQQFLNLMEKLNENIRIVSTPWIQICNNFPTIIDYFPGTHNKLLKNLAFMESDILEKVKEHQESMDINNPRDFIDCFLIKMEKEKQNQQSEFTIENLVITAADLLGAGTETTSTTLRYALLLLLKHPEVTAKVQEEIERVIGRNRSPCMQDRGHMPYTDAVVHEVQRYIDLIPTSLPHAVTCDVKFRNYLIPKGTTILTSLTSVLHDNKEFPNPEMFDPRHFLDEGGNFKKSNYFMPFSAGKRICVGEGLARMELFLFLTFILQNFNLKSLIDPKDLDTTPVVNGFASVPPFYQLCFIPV

Salmonella typhimurium [6] = test: Mutagenicity in Salmonella typhimurium TA98 up to 100 uM by Ames 2 assay; type: toxicity; details: salmonella enterica subsp. enterica serovar typhimurium
Salmonella typhimurium [7] = test: Mutagenicity in Salmonella typhimurium TA7001/7002/7003/7004/7005/7006 up to 100 uM in presence of rat liver S9 fraction by Ames 2 assay; type: toxicity; details: salmonella enterica subsp. enterica serovar typhimurium
Plasma [8] = test: Plasma concentration in Sprague-Dawley rat at 150 umol/kg, sc qd for 4 consecutive days measured on day 8 post dose by HPLC-MS analysis; type: ADME, organism-based; details: in vivo
PXR (NR1I2) = molecular target: T4, PXR (NR1I2) (Homo sapiens, UniProt O75469); test: Agonist activity at recombinant human PXR at 3.16 uM by co-factor recruitment assay relative to control; type: ADME; details: read-out: Activity
T4 sequence (O75469 whole entry): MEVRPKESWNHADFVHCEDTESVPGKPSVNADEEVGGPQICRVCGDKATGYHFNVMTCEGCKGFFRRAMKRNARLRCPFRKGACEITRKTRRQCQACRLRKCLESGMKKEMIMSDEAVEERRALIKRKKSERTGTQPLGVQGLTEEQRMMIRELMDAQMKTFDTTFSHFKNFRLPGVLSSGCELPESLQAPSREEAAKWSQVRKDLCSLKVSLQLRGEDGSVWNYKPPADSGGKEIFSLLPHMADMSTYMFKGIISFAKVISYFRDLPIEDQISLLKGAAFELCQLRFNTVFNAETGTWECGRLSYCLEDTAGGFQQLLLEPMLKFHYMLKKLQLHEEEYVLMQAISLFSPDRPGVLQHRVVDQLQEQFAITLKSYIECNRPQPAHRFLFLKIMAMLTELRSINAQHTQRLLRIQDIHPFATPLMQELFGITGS

Salmonella typhimurium [9] = test: Mutagenicity in Salmonella typhimurium TA7001/7002/7003/7004/7005/7006 up to 100 uM by Ames 2 assay; type: toxicity; details: salmonella enterica subsp. enterica serovar typhimurium
CYP2C9 = CYP2C9 (Homo sapiens, UniProt P11712); test: Inhibition of recombinant human CYP2C9 expressed in baculovirus infected insect cell microsomes at 1 uM relative to control; type: ADME
CYP2C9, sequence (P11712 whole entry): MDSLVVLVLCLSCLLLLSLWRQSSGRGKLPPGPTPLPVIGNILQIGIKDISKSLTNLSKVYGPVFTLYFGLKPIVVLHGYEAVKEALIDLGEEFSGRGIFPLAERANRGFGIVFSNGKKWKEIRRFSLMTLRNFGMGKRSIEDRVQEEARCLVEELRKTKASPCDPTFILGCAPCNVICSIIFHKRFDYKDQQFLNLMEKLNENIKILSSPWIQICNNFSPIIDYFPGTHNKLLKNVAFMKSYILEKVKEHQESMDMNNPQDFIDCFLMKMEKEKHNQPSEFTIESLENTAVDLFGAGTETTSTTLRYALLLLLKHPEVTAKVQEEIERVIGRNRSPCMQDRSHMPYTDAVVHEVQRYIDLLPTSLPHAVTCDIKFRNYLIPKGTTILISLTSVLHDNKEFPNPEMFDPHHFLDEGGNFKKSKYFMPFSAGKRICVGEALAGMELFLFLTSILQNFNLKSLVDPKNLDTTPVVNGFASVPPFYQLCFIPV

CYP2B6 = molecular target: T5, CYP2B6 (Homo sapiens, UniProt P20813); test: Inhibition of recombinant human CYP2B6 expressed in baculovirus infected insect cell microsomes at 1 uM relative to control; type: ADME
T5 sequence (P20813 whole entry): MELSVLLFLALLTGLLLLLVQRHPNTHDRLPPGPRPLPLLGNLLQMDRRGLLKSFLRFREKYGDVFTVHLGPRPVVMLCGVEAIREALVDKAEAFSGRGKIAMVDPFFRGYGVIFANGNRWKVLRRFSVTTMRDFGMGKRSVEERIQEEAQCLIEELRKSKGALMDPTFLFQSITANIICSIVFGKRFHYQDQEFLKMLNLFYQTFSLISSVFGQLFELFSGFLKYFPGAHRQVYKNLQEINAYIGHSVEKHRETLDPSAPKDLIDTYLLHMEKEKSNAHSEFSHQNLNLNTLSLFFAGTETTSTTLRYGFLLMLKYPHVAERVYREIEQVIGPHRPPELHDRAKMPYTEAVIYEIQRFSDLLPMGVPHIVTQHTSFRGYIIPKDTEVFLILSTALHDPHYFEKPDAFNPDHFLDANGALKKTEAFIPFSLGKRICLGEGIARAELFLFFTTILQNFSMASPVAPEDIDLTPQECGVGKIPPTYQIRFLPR

Salmonella typhimurium [10] = test: Mutagenicity in Salmonella typhimurium TA98 up to 100 uM in presence of rat liver S9 fraction by Ames 2 assay; type: toxicity; details: salmonella enterica subsp. enterica serovar typhimurium
CYP1A2 = molecular target: T6, CYP1A2 (Homo sapiens, UniProt P05177); test: Inhibition of recombinant human CYP1A2 expressed in baculovirus infected insect cell microsomes at 1 uM relative to control; type: ADME
T6 sequence (P05177 whole entry): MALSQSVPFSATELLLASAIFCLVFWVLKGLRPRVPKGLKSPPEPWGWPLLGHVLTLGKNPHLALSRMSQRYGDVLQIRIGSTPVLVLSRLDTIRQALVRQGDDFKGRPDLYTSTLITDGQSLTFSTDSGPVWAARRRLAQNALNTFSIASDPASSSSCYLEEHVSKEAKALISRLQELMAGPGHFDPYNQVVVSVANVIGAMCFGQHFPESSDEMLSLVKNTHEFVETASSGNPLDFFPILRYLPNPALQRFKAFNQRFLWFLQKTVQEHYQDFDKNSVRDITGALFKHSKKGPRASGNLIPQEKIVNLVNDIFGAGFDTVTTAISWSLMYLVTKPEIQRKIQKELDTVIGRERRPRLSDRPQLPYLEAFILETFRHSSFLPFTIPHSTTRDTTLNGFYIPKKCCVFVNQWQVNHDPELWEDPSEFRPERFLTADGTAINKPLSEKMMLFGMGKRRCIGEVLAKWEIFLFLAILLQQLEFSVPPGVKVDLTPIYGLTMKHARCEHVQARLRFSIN

[11] = Selectivity index, ratio of IC20 for HEK293 cells to IC50 for human placental cytosolic 17beta-HSD1
CYP3A4 = CYP3A4 (Homo sapiens, UniProt P08684); test: Inhibition of recombinant human CYP3A4 expressed in baculovirus infected insect cell microsomes at 1 uM relative to control; type: ADME
CYP3A4, sequence (P08684 whole entry): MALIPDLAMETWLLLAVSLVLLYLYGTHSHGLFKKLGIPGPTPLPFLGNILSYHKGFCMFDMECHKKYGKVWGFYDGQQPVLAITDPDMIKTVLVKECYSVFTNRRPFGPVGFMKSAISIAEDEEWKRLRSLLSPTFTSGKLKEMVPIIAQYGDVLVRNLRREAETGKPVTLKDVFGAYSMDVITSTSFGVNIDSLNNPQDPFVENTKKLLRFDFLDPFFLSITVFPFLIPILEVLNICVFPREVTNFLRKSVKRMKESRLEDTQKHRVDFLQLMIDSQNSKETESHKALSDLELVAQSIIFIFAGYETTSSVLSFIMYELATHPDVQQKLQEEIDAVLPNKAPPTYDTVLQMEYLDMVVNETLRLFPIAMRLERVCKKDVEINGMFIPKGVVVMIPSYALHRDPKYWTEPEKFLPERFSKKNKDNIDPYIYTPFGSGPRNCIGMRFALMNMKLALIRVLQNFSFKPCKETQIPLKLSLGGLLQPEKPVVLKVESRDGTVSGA

Plasma [12] = test: Plasma concentration in Sprague-Dawley rat at 150 umol/kg, sc qd for 4 consecutive days measured on day 4 post dose by HPLC-MS analysis; type: ADME, organism-based; details: in vivo

Row | Compound | pIC50 [1] | pIC50 [2] | activity at 3 µM [3] [%] | activity at 10 µM [4] [%] | further results
1 | O=C(c1ccc(-c2cccnc2)s1)c1c(F)ccc(O)c1F | 7.33 | 7.57 |  |  | 
2 | O=C(c1ccc(-c2ccncc2)s1)c1c(F)ccc(O)c1F | 7.41 | 6.82 |  |  | 
3 | O=C(c1cccc(O)c1)c1ccc(-c2cc(Cl)c(O)c(Cl)c2)s1 | 6.27 | 7.14 |  |  | 
4 | Cc1cc(-c2ccc(C(=O)c3c(F)ccc(O)c3F)s2)cc(C)c1O |  |  | 17 | 22 | 
5 | O=C(c1ccc(-c2ccc(O)c(Cl)c2)s1)c1c(F)ccc(O)c1F |  |  | 73 | 55 | 
6 | O=C(c1ccc(-c2ccccc2)s1)c1c(F)ccc(O)c1F | 7.46 | 7.96 |  |  | 
7 | NS(=O)(=O)c1cccc(-c2ccc(C(=O)c3c(F)ccc(O)c3F)s2)c1 | 7.07 | 7.26 |  |  | 
8 | COc1c(Cl)cc(-c2ccc(C(=O)c3c(F)ccc(O)c3F)s2)cc1Cl |  | 9.30 | 27 | 8 | inhibition at 1 µM (CYP2D6): 0%; Activity (HEK293): Non-Toxic; concentration (Plasma [5]): 24 nM; inhibition at 1 µM (CYP2C19): 27%; Activity (Salmonella typhimurium [6]): Non-Toxic; Activity (Salmonella typhimurium [7]): Non-Toxic; concentration (Plasma [8]): 72 nM; activity at 3.16 µM (PXR (NR1I2)): < 5%; Activity (Salmonella typhimurium [9]): Non-Toxic; inhibition at 1 µM (CYP2C9): 0%; inhibition at 1 µM (CYP2B6): 4%; Activity (Salmonella typhimurium [10]): Non-Toxic; inhibition at 1 µM (CYP1A2): 11%; Selectivity Index [11]: 11160; inhibition at 1 µM (CYP3A4): 36%; concentration (Plasma [12]): 42 nM
9 | O=C(c1ccc(-c2ccc(O)cc2)s1)c1c(F)ccc(O)c1F | 7.15 | 8.52 |  |  | 
10 | COc1c(Cl)cc(-c2ccc(C(=O)c3cccc(O)c3)s2)cc1Cl | 6.60 | 8.22 | 8 | 0 | 
11 | NS(=O)(=O)c1ccc(-c2ccc(C(=O)c3c(F)ccc(O)c3F)s2)cc1 | 7.07 | 6.82 |  |  | 
12 | O=C(c1ccc(-c2ccc(F)cc2F)s1)c1cccc(O)c1F | 7.26 | 7.33 |  |  | 
13 | COc1c(C)cc(-c2ccc(C(=O)c3c(F)ccc(O)c3F)s2)cc1C |  |  | 51 | 69 | 
14 | N#Cc1cc(-c2ccc(C(=O)c3c(F)ccc(O)c3F)s2)ccc1O |  |  | 44 | 6 | 
15 | O=C(c1cccc(O)c1)c1ccc(-c2ccc(F)cc2F)s1 | 6.85 | 6.96 to 6.98 |  |  | 
16 | COc1c(C)cc(-c2ccc(C(=O)c3c(F)ccc(O)c3F)s2)cc1Cl |  | 9.52 |  |  | 
17 | O=C(c1ccc(-c2cc(Cl)c(O)c(Cl)c2)s1)c1c(F)ccc(O)c1F |  |  | 37 | 11 | 
18 | O=C(c1ccc(-c2cc(Cl)c(O)c(Cn3ccnn3)c2)s1)c1c(F)ccc(O)c1F | 7.59 | 7.74 |  |  | 
19 | COc1ccc(-c2ccc(C(=O)c3c(F)ccc(O)c3F)s2)cc1 | 7.42 | 7.74 |  |  | 
20 | COc1ccc(-c2ccc(C(=O)c3c(F)ccc(O)c3F)s2)cc1S(=O)(=O)N1CCOCC1 | 6.74 | 6.89 | 0 | 4 | 
